One block for each molecule: values may come before it.
Columns and labels:
17β-HSD10 [1] = target: T1, 17β-HSD10 (Homo sapiens, UniProt Q99714); assay: (−)-CHANA assay, 17β-HSD10 activity within cells; format: cell-based; set-up: mts (prefix as printed); expressed in transfected cells; host or cells: HEK293; details: for IC50: HEK293 mts17β-HSD10 cells, 20 µM (−)-CHANA, 95% CI; for behaviour in (−)-CHANA assay media: cellular IC50 could not be calculated
T1 sequence (Q99714 1-261): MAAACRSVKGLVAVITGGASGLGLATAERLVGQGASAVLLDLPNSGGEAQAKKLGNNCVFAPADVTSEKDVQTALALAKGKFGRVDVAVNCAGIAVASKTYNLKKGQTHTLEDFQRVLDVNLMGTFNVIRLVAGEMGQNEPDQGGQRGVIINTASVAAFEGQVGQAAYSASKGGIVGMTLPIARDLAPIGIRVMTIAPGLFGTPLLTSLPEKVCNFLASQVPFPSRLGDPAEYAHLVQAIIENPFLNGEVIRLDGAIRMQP
Method: HEK293 mts17β-HSD10 cells were seeded at a density of 10,000 cells per well (100 µL, 96-well black plates, Greiner Cat no. 655090) in phenol-red free media (10% FBS, 1 mM Sodium Pyruvate, 100 units Penicillin, 0.1 mg/mL Streptomycin and 2 mM L-Glutamine). The media was removed from the cells and replaced with fresh media containing varying concentrations of compound (100 µM–0.098 µM). The fluorogenic probe (−)-CHANA was then added to each well to give a final assay concentration of 20 µM. Fluorescence was immediately measured using the FLUOstar Optima microplate reader (excitation = 380 nm, emission = 520 nm, orbital averaging = 3 mm) and the initial reaction monitored for 3–4 hours. EC50 was calculated from the control - subtracted triplicates using non-linear regression (four parameters) of GraphPad Prism 5 software. Final EC50 and SEM value was obtained as a mean of at least 3 independent measurements.

17β-HSD10 [2] = target: T1, 17β-HSD10; assay: mechanism of inhibition experiments (Hanes–Woolf kinetics); format: biochemical; set-up: made in house
Method: (§1) Compound screening, dose response and mechanism of inhibition experiments were performed as described in Hroch et al. 2016, with the exceptions being an alteration in assay buffer (10 mM Tris HCl (pH 7.4), 150 mM NaCl, 1 mM DTT, 0.005% Tween20, 0.01% BSA) and a change in temperature to 25 °C, to improve enzyme stability and assay reliability as compound solubility improved, as outlined in our previous work.
Figure [S2]: Hanes-Woolf kinetic plots for compounds 5, 6 and 61. Each compound’s mode of inhibition with respect to both Acetoacetyl CoEnzymeA and NADH determined from Hanes -Woolf calculations. The mean values shown with n=3 ± St Dev.
(1 picture or pasted object on this page, not shown here)

[3] = system: HEK293 mts17β-HSD10 cells; assay: Lactate dehydrogenase (LDH) cytotoxicity assay; format: cell-based; details: 24 h
Method: Lactate dehydrogenase (LDH) is a colorimetric assay routinely used to quantitatively measure LDH released into the media from damaged cells as a biomarker for cellular cytotoxicity and cytolysis. HEK293 mts17β-HSD10 cells were treated with compound (100 and 25 μM) for 24 h before measurements were taken.
Cell cytotoxicity was assessed via the measurement of lactate dehydrogenase leakage into the culture medium using a commercially available kit from Pierce (Thermo Scientific, UK, cat no. 88953). This was carried out in accordance with the kit guidelines, with the activity of LDH being calculated from the change in absorbance at […] as NADH is reduced. HEK293 cells overexpressing mts17β-HSD10 were cultured in phenol-red free media (10% FBS, 1 mM Sodium Pyruvate, 100 units Penicillin, 0.1 mg/mL Streptomycin and 2 mM L-Glutamine) and seeded at a density of 10,000 cells per well (100 µL, 96-well plates). Cells were then treated with compound of interest at 2 concentrations (25 µM and 100 µM in DMSO) in triplicate. Treated cells were then incubated at 37 °C and CO2 (5%) for 24 hours before the LDH assay was performed as per the manufacturer’s instructions. Spontaneous control (water) and maximum control (lysis buffer) used in accordance with the kit guide. Absorbance was measured at 490 nm and 680 nm using the SpectraMaxM2e spectrophotometer (Molecular Devices, San Jose, CA, USA). The measured LDH activity was used to calculate % cytotoxicity using the following equation: (1) % cytotoxicity=(compound treated LDH Activity−Spontaneous LDH Activity)/(Maximum LDH Activity−Spontaneous LDH Activity)×100

17β-HSD10 [4] = target: T1, 17β-HSD10; assay: recombinant 17β-HSD10 enzyme activity assay (primary NADH screen and dose response); format: biochemical; set-up: made in house; details: for IC50: recombinant enzyme, dose response, 95% CI; for remaining activity at 25 µM: relative remaining activity, 25 μM compound, six independent measurements ± SEM, read-out: 17β-HSD10 activity in the presence of compound at 25 μM (Primary Screen)
Description: In order to reduce attrition rates and improve assay reproducibility we have developed a high throughput screening (HTS) pipeline (Figure 3 [19]). In brief, compounds are screened in the recombinant 17β-HSD10 enzyme activity assay (Table 5, Figure 4). Our best previously published compounds have set the threshold of 40% remaining 17β-HSD10 activity as a minimum standard and if compounds can better this threshold, they are further screened using our orthogonal counter assays, dose response assays and kinetic assessment (Table 5). Finally, if passing these criteria with favourable characteristics, the compounds progress into cellular evaluation through cytotoxicity testing and measuring 17β-HSD10 activity within cells (Table 6).
Full results for the primary nicotinamide adenine dinucleotide (NADH) assay screens are shown in Figure 4 including our four best previously published compounds for comparison (Figure 1).
Purification of 17β-HSD10 protein was performed as described in our previous work.
as §1

17β-HSD10 [5] = target: T1, 17β-HSD10; assay: orthogonal counter screen: small molecule aggregation (Triton X-100); format: biochemical; set-up: made in house; details: for increase in 17β-HSD10 activity within aggregation assay: in the presence of Triton X-100
Description: During our enzymatic assay development, it was noted that the assay was susceptible to false positives through redox cycling and aggregation mechanism, therefore, two orthogonal counter screens have been implemented to validate the primary screen results. The addition of the detergent Triton X-100 to the assay buffer prevents the hydrophobic interactions required for aggregation, by which a reduction in inhibition in the presence of Triton X-100 indicates the undesirable inhibitory mode of action whereby, the compound could be potentially inhibiting the enzyme through the indirect sequestration of the protein. […] Given that these three compounds were part of a small series we decided to advance them into the next step of screening.
Orthogonal screening (small molecule aggregation and redox cycling experiments) was carried out as described in our previous work.

Structure (SMILES): CC(C)c1ccc2nc(NC(=O)Nc3ccc(O)c(Cl)c3)sc2c1 [Compound 61, 1-(3-Chloro-4-hydroxyphenyl)-3-(6-isopropylbenzo[d]thiazol-2-yl)urea]
- IC50 (17β-HSD10 [1]): 7.88 µM
- melting point: 246 to 248 °C
- Mechanism of Inhibition with Respect to Both Acetoacetyl-CoA and NADH (17β-HSD10 [2]): Mixed
- LDH Cytotoxicity with 25 μM Compound [3]: 28.83 ± 0.67%
- LDH Cytotoxicity with 100 μM Compound [3]: 55.68 ± 2.55%
- inhibition at 25 µM (17β-HSD10 [4]): 77.4%
- IC50 (17β-HSD10 [4]): 5.12 µM
- remaining activity at 25 µM (17β-HSD10 [4]): 36.5 ± 0.53%
- Orthogonal Counter Screens: Evidence of Aggregation or Redox Cycling (17β-HSD10 [5]): None

Structure (SMILES): CC(C)(C)c1ccc2nc(NC(=O)Nc3ccc(O)c(Cl)c3)sc2c1 [Compound 62, 1-(6-(Tert-butyl)benzo[d]thiazol-2-yl)-3-(3-chloro-4-hydroxyphenyl)urea]
- IC50 (17β-HSD10 [1]): 3.77 µM
- melting point: 238 to 240 °C
- Mechanism of Inhibition with Respect to Both Acetoacetyl-CoA and NADH (17β-HSD10 [2]): Mixed
- LDH Cytotoxicity with 25 μM Compound [3]: 27.25 ± 3.35%
- LDH Cytotoxicity with 100 μM Compound [3]: 64.40 ± 3.62%
- inhibition at 25 µM (17β-HSD10 [4]): 78.4%
- IC50 (17β-HSD10 [4]): 5.29 µM
- remaining activity at 25 µM (17β-HSD10 [4]): 34 ± 2.44%
- Orthogonal Counter Screens: Evidence of Aggregation or Redox Cycling (17β-HSD10 [5]): None

Structure (SMILES): O=C(Nc1ccc(O)c(Cl)c1)Nc1nc2ccc(SC(F)(F)F)cc2s1 [Compound 64, 1-(3-Chloro-4-hydroxyphenyl)-3-(6-((trifluoromethyl)thio)benzo[d]thiazol-2-yl)urea]
- behaviour in (−)-CHANA assay media (17β-HSD10 [1]): precipitating within the assay media
- melting point: 256 to 258 °C
- Mechanism of Inhibition with Respect to Both Acetoacetyl-CoA and NADH (17β-HSD10 [2]): Mixed
- LDH Cytotoxicity with 25 μM Compound [3]: 22.83 ± 0.63%
- LDH Cytotoxicity with 100 μM Compound [3]: 33.35 ± 2.92%
- IC50 (17β-HSD10 [4]): 5.21 µM
- remaining activity at 25 µM (17β-HSD10 [4]): 50.5 ± 1.25%
- Orthogonal Counter Screens: Evidence of Aggregation or Redox Cycling (17β-HSD10 [5]): None

Structure (SMILES): N#CSc1ccc2nc(NC(=O)Nc3ccc(O)c(Cl)c3)sc2c1 [Compound 65, 1-(3-Chloro-4-hydroxyphenyl)-3-(6-thiocyanatobenzo[d]thiazol-2-yl)urea]
- IC50 (17β-HSD10 [1]): 88.9 µM
- melting point: 251 to 253 °C
- Mechanism of Inhibition with Respect to Both Acetoacetyl-CoA and NADH (17β-HSD10 [2]): Mixed
- LDH Cytotoxicity with 25 μM Compound [3]: 11.27 ± 0.58%
- LDH Cytotoxicity with 100 μM Compound [3]: 27.41 ± 2.65%
- inhibition at 25 µM (17β-HSD10 [4]): 85.7%
- remaining activity at 25 µM (17β-HSD10 [4]): 37.83 ± 0.35%
- increase in 17β-HSD10 activity within aggregation assay (17β-HSD10 [5]): 28.5% increase in 17β-HSD10 activity within aggregation assay

Structure (SMILES): CS(=O)(=O)c1ccc2nc(NC(=O)Nc3ccc(O)c(Cl)c3)sc2c1 [Compound 66, 1-(3-Chloro-4-hydroxyphenyl)-3-(6-(methylsulfonyl)benzo[d]thiazol-2-yl)urea]
- behaviour in (−)-CHANA assay media (17β-HSD10 [1]): precipitating within the assay media
- Mechanism of Inhibition with Respect to Both Acetoacetyl-CoA and NADH (17β-HSD10 [2]): Mixed
- LDH Cytotoxicity with 25 μM Compound [3]: 13.59 ± 0.66%
- LDH Cytotoxicity with 100 μM Compound [3]: 17.51± 0.46%
- IC50 (17β-HSD10 [4]): 0.93 µM
- remaining activity at 25 µM (17β-HSD10 [4]): 21.62 ± 0.21%
- Orthogonal Counter Screens: Evidence of Aggregation or Redox Cycling (17β-HSD10 [5]): None

Structure (SMILES): O=C(Nc1ccc(O)c(Cl)c1)Nc1nc2ccc(S(=O)(=O)C(F)(F)F)cc2s1 [Compound 67, 1-(3-Chloro-4-hydroxyphenyl)-3-(6-((trifluoromethyl)sulfonyl)benzo[d]thiazol-2-yl)urea]
- behaviour in (−)-CHANA assay media (17β-HSD10 [1]): precipitating within the assay media
- melting point: 267 to 269 °C
- Mechanism of Inhibition with Respect to Both Acetoacetyl-CoA and NADH (17β-HSD10 [2]): Mixed
- LDH Cytotoxicity with 25 μM Compound [3]: 22.68 ± 2.68%
- LDH Cytotoxicity with 100 μM Compound [3]: 36.05 ± 1.75%
- IC50 (17β-HSD10 [4]): 2.69 µM
- remaining activity at 25 µM (17β-HSD10 [4]): 29.1 ± 0.32%
- increase in 17β-HSD10 activity within aggregation assay (17β-HSD10 [5]): 12.6% increase in 17β-HSD10 activity within aggregation assay

More lines, main results first:

- IC50 (17β-HSD10 [1]): 10.4 µM
- Mechanism of Inhibition with Respect to Both Acetoacetyl-CoA and NADH (17β-HSD10 [2]): Mixed
- IC50 (17β-HSD10 [4]): 1.28 µM
- remaining activity at 25 µM (17β-HSD10 [4]): 14.3 ± 1.95%
- Orthogonal Counter Screens: Evidence of Aggregation or Redox Cycling (17β-HSD10 [5]): None
Structure (SMILES): COc1ccc2nc(NC(=O)Nc3ccc(O)c(Br)c3)sc2c1 [Compound 5, 1-(3-Bromo-4-hydroxyphenyl)-3-(6-methoxybenzo[d]thiazol-2-yl)urea]
- LDH Cytotoxicity with 25 μM Compound [3]: 13.28 ± 0.55%
- LDH Cytotoxicity with 100 μM Compound [3]: 20.13 ± 4.26%

- IC50 (17β-HSD10 [1]): 17 µM
- melting point: 241 to 242 °C
- Mechanism of Inhibition with Respect to Both Acetoacetyl-CoA and NADH (17β-HSD10 [2]): Mixed
- IC50 (17β-HSD10 [4]): 1.86 µM
- remaining activity at 25 µM (17β-HSD10 [4]): 9.82 ± 2.19%
- Orthogonal Counter Screens: Evidence of Aggregation or Redox Cycling (17β-HSD10 [5]): None
Structure (SMILES): COc1ccc2nc(NC(=O)Nc3ccc(O)c(I)c3)sc2c1 [Compound 6, 1-(4-Hydroxy-3-iodophenyl)-3-(6-methoxybenzo[d]thiazol-2-yl)urea]
- LDH Cytotoxicity with 25 μM Compound [3]: 23.54 ± 3.02%
- LDH Cytotoxicity with 100 μM Compound [3]: 23.97 ± 3.32%

- IC50 (17β-HSD10 [1]): 2.29 µM
- Mechanism of Inhibition with Respect to Both Acetoacetyl-CoA and NADH (17β-HSD10 [2]): Mixed
- IC50 (17β-HSD10 [4]): 1.61 µM
- remaining activity at 25 µM (17β-HSD10 [4]): 28.7 ± 0.38%
Structure (SMILES): CCOc1ccc2nc(NC(=O)Nc3ccc(O)c(Cl)c3)sc2c1 [Compound 63, 1-(3-Chloro-4-hydroxyphenyl)-3-(6-ethoxybenzo[d]thiazol-2-yl)urea]
- LDH Cytotoxicity with 25 μM Compound [3]: 15.98 ± 1.02%
- LDH Cytotoxicity with 100 μM Compound [3]: 18.05± 0.96%
